Data on 21 compounds can be found in patent US8933065B2, “N-benzylamide substituted derivatives of 2-(acylamido)acetic acid and 2-(acylamido)propionic acids: potent neurological agents” (The University of North Carolina at Chapel Hill, priority 2008, dated 2015).

Where two headings read alike, the source gives them in different places.

Data set [1] concerns maximal electroshock (MES)-induced seizures. Briefly: Maximal electroshock seizure (MES) test, mice (ip). The class given is in vivo. The settings on record: mice, ip.
Method: (§2) The maximal electroconvulsive shock (MES) test is regarded as a standard screen for anticonvulsant activity in terms of inhibition of seizure spread in generalized tonic-clonic seizures.
(§3) Groups of at least 8 male albino CF No. 1 mice or male albino Sprague-Dawley rats are treated with 10 mL/kg i.p. or 4 mL/kg p.o. of the test compound solution, respectively. The electrical stimulus in the MES test is 50 mA at 60 Hz for mice and 150 mA at 60 Hz for rats, both delivered for 0.2 sec. Abolition of the hind leg tonic extensor component of the seizure is used as the endpoint.
The test system is the same in data set [2]. Briefly: Maximal electroshock seizure (MES) test, rat (po). The class given is in vivo. The settings on record: for ED50: Rattus norvegicus; for MES, ED50: rat, time (h) in brackets, Table 2.
Method: as §2, §3
The subject of data set [3] is behavioral toxicity. Briefly: Toxicity (behavioral toxicity), rat (po). Type of data set: in vivo. Here is the method:
(§1) Tests are conducted in groups of at least 8 mice or rats to determine the intrinsic neurotoxicity (neuromuscular impairment) after administration of the test compound by the route of administration to be used in the pharmacology studies. Neurotoxicity is determined in male CF No 1 mice by the rotarod procedure. Inability of the mouse to maintain its equilibrium in 3 trials during 1 min on this rotating rod (6 rpm) is used as an indication of such impairment. In Sprague-Dawley rats, minimal motor impairment (MMI) is determined by overt evidence of ataxia, abnormal gait, and stance.

Data set [4] deals with mechanical allodynia after partial sciatic nerve ligation. Briefly: Partial sciatic nerve ligation model, rats (ip). The class given is in vivo. The settings on record: dose 12, p < 0.05.
Data set [5] concerns hippocampal kindled seizures. As to the kind of experiment: Hippocampal kindling test, rats. The class given is in vivo. The settings on record: for Preliminary Hippocampal Kindling Test, After discharge duration, Drug / Preliminary Hippocampal Kindling Test, Seizure Score, Drug: rats; for Preliminary Hippocampal Kindling Test, Seizure Score, Drug: after drug (pre-drug score 4-5). As for the experimental part:
The kindling model provides a tool to predict a test compound's activity in complex partial seizures.
Male albino Sprague-Dawley rats (n=8) are kindled to a Stage 5 behavioral seizure. They are treated with an appropriate i.p. dose of the test compound after a 1-week, stimulus-free period. The test compound is evaluated for its effect on kindled motor seizures (seizures scores of 4 and 5), limbic behavior seizures (seizure scores between 1 and 3) and after-discharge duration. After 15 min, each rat is stimulated every 30 min for 3-4 h. Following each stimulation, individual seizure scores and after-discharge duration are recorded. The group mean and standard error of the mean (SEM) are calculated for each parameter.

The test system of another data set is 6 Hz seizures. As to the kind of experiment: 6 Hz seizure model, mice (ip). The class given is in vivo. Conditions: for 6 Hz, ED50: mice, ip; for seizure activity in the 6 Hz seizure model assay: comparable to or exceeding phenyloin and phenobarbital.
In data set [6] the test system is neurologic toxicity (rotorod test). As to the kind of experiment: Neurologic toxicity, rotorod test, mice (ip). Conditions: rotorod test. The class given is in vivo. As for the experimental part:
as §1

Data set [7] concerns maximal electroshock (MES)-induced seizures. Conditions: mice, ip; Table 3, Ref 30, 16, 32; cited from earlier work.
The test system of data set [8] is behavioral toxicity. The settings on record: rat, po; Table 3, Ref 16, 32; cited from earlier work.
For data set [9], the system named is maximal electroshock (MES)-induced seizures. Conditions: rat, po; Table 3, Ref 16, 32; cited from earlier work.
Data set [10] concerns neurologic toxicity (rotorod test). The settings on record: mice, ip, Table 3, Ref 30, 16, 32; cited from earlier work.
The mark [11] stands for this setting: time (h) in brackets, Table 3, NINDS ASP.
[12] abbreviates: read-out: MES, ED50, rat, po, Table 3.
[13] abbreviates: time (h) in brackets, (X′—Y′—Z′ group).
Where [14] appears, read: behavioral toxicity, Table b607.
The mark [15] stands for this setting: time of peak effect (h) in brackets, Table 2.
The mark [16] stands for this setting: time (h) in brackets, Table 2, footnotes not given.

In the case of `C#CCOC[C@@H](NC(C)=O)C(=O)NCc1ccc(N=C=S)cc1`, the melting point lay within 157 to 159 °C.
In the case of `CC(=O)NC(C(=O)NCc1ccc(OCc2cccc(F)c2)cc1)c1ccccn1` (racemic) [(R,S)-9, N-4-(3-Fluorobenzyloxy)benzyl 2-Acetamido-2-(pyridin-2-yl)acetamide], the “MES, ED50” value in [1] (setting [11]) was 28 [0.5] (20-36) milligrams per kilogram. The ED50 in data set [2] (setting [12]) is over 30 mg/kg. The “Tox, TD50” value in the data set on behavioral toxicity [3] (behavioral toxicity, Table 3) is >30 [4] milligrams per kilogram.
As to `COC[C@@H](NC(C)=O)C(=O)NCc1ccc(OCc2cccc(F)c2)cc1` [(R)-3, (R)-2-Acetamido-N-(4-(3-fluorobenzyloxy)benzyl)-3-methoxypropanamide], the ED50 in [1] (Mus musculus, time (h) in brackets, Table 2, footnotes not given) was determined as 13 mg/kg; in [5] (Rattus norvegicus, ip, read-out: Hippocampal Kindled Rats (ip) ED50 (inteval)) it was 12 mg/kg. The “fold attentaution of mechanical allodynia at 1 h” value in data set [4] is on record as 11.2 fold attentaution of mechanical. The “Preliminary Hippocampal Kindling Test, After discharge duration, Drug” value in data set [5] amounted to 0 s. The “Preliminary Hippocampal Kindling Test, Seizure Score, Drug” value in [5] came out at 0.
`C#CCOC[C@@H](NC(C)=O)C(=O)NCc1ccccc1` [(R)-7, (R)—N-Benzyl-2-acetamido-3-(prop-2-ynyloxy)propanamide] came in with a melting point of 149 °C.
On the same count and under the same terms, the same measure for `C#CCOC[C@@H](NC(C)=O)C(=O)NCc1ccc(N=[N+]=[N-])cc1` [(R)-8, (R)—N-(4-Azidobenzyl)-2-acetamido-3-(prop-2-ynyloxy)propanamide]: 135 to 136 °C.
On to `COC[C@@H](NC(C)=O)C(=O)NCc1ccc(OCc2cccc(F)c2)cc1` [(R)-10, (R)-2-Acetamido-N-(4-(3-fluorobenzyloxy)benzyl)-3-methoxypropanamide], for which the “MES, ED50” value in data set [1] (setting [13]) was 13 [0.25] milligrams per kilogram; in data set [1] (time (h) in brackets, (terminal ring group)), 13 [0.25] milligrams per kilogram; in data set [1] (setting [11]) it was 13 [0.25] milligrams per kilogram; in data set [2], 4.9 [1]. Moreover, the “6 Hz, ED50” value in the data set on 6 Hz seizures (Table 3), in the data set with 6 Hz seizures (Table b607) and with 6 Hz seizures (Table b608) was ~10 [0.25] milligrams per kilogram each time. For the same compound, the “Tox, TD50” value in [6] (Table 3) is 26 [0.5] milligrams per kilogram; in data set [6] (Table b607), 26 [0.5] milligrams per kilogram; in [6] (Table b608) it was 26 [0.5] milligrams per kilogram; with behavioral toxicity [3] (behavioral toxicity, Table 3) it was >500 [0.5] milligrams per kilogram; in the data set with behavioral toxicity [3] (setting [14]), >500 [0.5] milligrams per kilogram; in the data set with behavioral toxicity [3] (behavioral toxicity, Table b608), >500 [0.5] milligrams per kilogram. In the data set with behavioral toxicity [3] (time (h) in brackets, Table 2), the Tox, TD50 was over 280 mg/kg.
As for `COC[C@@H](NC(C)=O)C(=O)NCc1ccc(Oc2cccc(F)c2)cc1` [(R)-12, (R)—N-4′-((3″-Fluoro)phenoxy)benzyl 2-N-Acetamido-3-methoxypropionamide], the “MES, ED50” value in data set [1] (setting [13]) was 5.5 [0.25] (3.2-6.3) milligrams per kilogram. Moreover, the ED50 in data set [2] (read-out: MES, ED50, rat, po) is under 10 mg/kg. Further, the “6 Hz, ED50” value in the data set on 6 Hz seizures (Table b607) is ~10 [0.5] milligrams per kilogram. Also, the entries for the “Tox, TD50” value (in [6] (Table b607); with behavioral toxicity [3] (setting [14])) were 23 [0.25] (18-28) milligrams per kilogram and >10 [0.25-4.0] milligrams per kilogram, respectively.
Take `COC[C@@H](NC(C)=O)C(=O)NCc1ccc(/C=C/c2cccc(F)c2)cc1` [(R)-14, (2-R,E)-N-4-(3-Fluorostyryl)benzyl 2-Acetamido-3-methoxypropionamide]: the ED50 in [2] (read-out: MES, ED50, rat, po) was about 30 mg/kg. Also, in the data set with 6 Hz seizures (Table b607), the “6 Hz, ED50” value is <30 [0.25] milligrams per kilogram. Further, the “Tox, TD50” value with behavioral toxicity [3] (setting [14]) was >30 [0.25, 4.0] milligrams per kilogram.
Take `COC[C@@H](NC(C)=O)C(=O)NCc1ccc(COc2cccc(F)c2)cc1` [(R)-16, (R)—N-4-((3-Fluorophenoxy)methyl)benzyl 2-Acetamido-3-methoxypropionamide]: in [1] (setting [13]), the “MES, ED50” value was 5.9 [0.25] milligrams per kilogram. Also, the ED50 in data set [2] (read-out: MES, ED50, rat, po) came out at 19 mg/kg. Further, the “Tox, TD50” value in [6] (Table b607) is 10 [0.25] milligrams per kilogram; in the data set with behavioral toxicity [3] (setting [14]) it was >400 [0.5] milligrams per kilogram.
`COC[C@@H](NC(C)=O)C(=O)NCc1ccc(COCc2cccc(F)c2)cc1` [(R)-18, (R)—N-4-(((3-Fluoro)benzyloxy)methyl)benzyl 2-Acetamido-3-methoxypropionamide] showed a melting point of 140 to 142 °C.
In the case of `CC(=O)N[C@@H](C)C(=O)NCc1ccccc1` [(S)-4, reference compound], the “MES, ED50” value in data set [1] (95% confidence intervals in parentheses, Table 1) is recorded as 550 (460-740) mg/kg; in data set [7], 8.0 milligrams per kilogram.
As for `CC(=O)N[C@@H](C)C(=O)NCc1ccc(OCc2cccc(F)c2)cc1` [(S)-6, (S)—N-4-(3-Fluorobenzyloxy)benzyl 2-Acetamidopropionamide, reference compound], in data set [2] (setting [12]), the ED50 is over 30 mg/kg. In addition, the “Tox, TD50” value is >300 [0.5] milligrams per kilogram in data set [6] (Table 3) and >30 [0.25 to milligrams per kilogram with behavioral toxicity [3] (behavioral toxicity, Table 3).
The compound `C#CCOC[C@H](NC(C)=O)C(=O)NCc1ccccc1` [(S)-7, (S)—N-Benzyl-2-acetamido-3-(prop-2-ynyloxy)propanamide] came in with a melting point of 148.5 to 149 °C. For the same compound, the “Tox, TD50” value in data set [6] (setting [15]) is recorded as over 300 mg/kg. The “Tox, TD50” value in the data set on behavioral toxicity [3] (time (h) in brackets, Table 2) is given as over 30 mg/kg.
For the compound `C#CCOC[C@H](NC(C)=O)C(=O)NCc1ccc(N=[N+]=[N-])cc1` [(S)-8, (S)—N-(4-Azidobenzyl)-2-acetamido-3-(prop-2-ynyloxy)propanamide], the melting point is 135 to 136.5 °C. Besides, in [6] (setting [15]), the “Tox, TD50” value is over 300 mg/kg. Further, the “Tox, TD50” value with behavioral toxicity [3] (time (h) in brackets, Table 2) is over 30 mg/kg.
The compound `C#CCOC[C@H](NC(C)=O)C(=O)NCc1ccc(N=C=S)cc1` [(S)-9, (S)—N-(4-Isothiocyanatobenzyl)-2-acetamido-3-(prop-2-ynyloxy)propanamide] registered a melting point of 157 to 158 °C. Moreover, in data set [6] (setting [15]), the “Tox, TD50” value is over 300 mg/kg.
Regarding `CCC1(c2ccccc2)C(=O)NC(=O)NC1=O` [Phenobarbital, reference compound], the “MES, ED50” value in data set [1] (setting [16]) is 22 [1]. Besides, in the data set on behavioral toxicity [8], the “Tox, TD50” value was 61 [0.5] milligrams per kilogram.
Regarding `CC(=O)NCC(=O)NCc1ccc(OCc2cccc(F)c2)cc1` [compound 5, N-4-(3-Fluorobenzyloxy)benzyl 2-Acetamidoacetamide], in data set [2] (setting [12]), the 50% effective dose (ED50) is 31 mg/kg. Moreover, the “Tox, TD50” value in data set [6] (Table 3) was >300 [0.5 and 4.0] milligrams per kilogram; in the data set on behavioral toxicity [3] (behavioral toxicity, Table 3), >500 [1.0] milligrams per kilogram.
On to `C#CCOCC(NC(C)=O)C(=O)NCc1ccccc1` (centres unmarked) [compound 7], for which the “seizure activity in the 6 Hz seizure model assay” value in the data set on 6 Hz seizures was “excellent seizure activity”.
As to `C#CCOCC(NC(C)=O)C(=O)NCc1ccc(N=[N+]=[N-])cc1` (centres unmarked) [compound 8], the “seizure activity in the 6 Hz seizure model assay” value with 6 Hz seizures is reported as “excellent seizure activity”.
For the compound `O=C1NC(=O)C(c2ccccc2)(c2ccccc2)N1` [phenytoin, reference compound], the “MES, ED50” value is 30 [4] in data set [2] and 30 [4.0] milligrams per kilogram in [9]. For the same compound, the “Tox, TD50” value was “^hNo ataxia observed up to 3000 mg/kg” with behavioral toxicity [3] (time (h) in brackets, Table 2) and 66 [2.0] milligrams per kilogram in data set [10]. The “Preliminary Hippocampal Kindling Test, After discharge duration, Drug” value in [5] is 51 s. Moreover, the “Preliminary Hippocampal Kindling Test, Seizure Score, Drug” value in [5] is recorded as 3.
Take `CCCC(CCC)C(=O)O` [valproate]: the “MES, ED50” value in data set [1] (setting [16]) is 270 [0.25]; in data set [2], 490 [0.5]; in data set [7], 270 [0.25] milligrams per kilogram; in data set [9], 490 [0.5] milligrams per kilogram.
